# Patent US20240182453A1, “NOVEL SUBSTITUTED PYRAZINE-CARBOXAMIDE DERIVATIVES” (Boehringer Ingelheim International GmbH, priority 2022, published 2024)
# Target: human metabotropic Glutamate 4 receptor (mGluR4) (Homo sapiens (Human), UniProt Q14833)
# Experiment: Assay A: in vitro testing of mGluR4 potency (glutamate-induced cAMP lowering, HTRF cAMP)
# Format: cell-based
# Conditions: HEK293 cells overexpressing human mGluR4; 10 uM L-glutamic acid, 1 uM forskolin; compounds of the present invention
# Method in brief: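 HEK293 cells overexpressing human mGluR4 treated 30 min at room temperature with compound plus 10 uM L-glutamate, 1 uM forskolin, 0.5 mM IBMX, 0.1% BSA, 1% DMSO. cAMP read by HTRF (665/615 nm ratio), normalized to glutamate (100%) and no-glutamate (0%) controls as percent of control.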
# human metabotropic Glutamate 4 receptor (mGluR4), sequence (Q14833 33-912): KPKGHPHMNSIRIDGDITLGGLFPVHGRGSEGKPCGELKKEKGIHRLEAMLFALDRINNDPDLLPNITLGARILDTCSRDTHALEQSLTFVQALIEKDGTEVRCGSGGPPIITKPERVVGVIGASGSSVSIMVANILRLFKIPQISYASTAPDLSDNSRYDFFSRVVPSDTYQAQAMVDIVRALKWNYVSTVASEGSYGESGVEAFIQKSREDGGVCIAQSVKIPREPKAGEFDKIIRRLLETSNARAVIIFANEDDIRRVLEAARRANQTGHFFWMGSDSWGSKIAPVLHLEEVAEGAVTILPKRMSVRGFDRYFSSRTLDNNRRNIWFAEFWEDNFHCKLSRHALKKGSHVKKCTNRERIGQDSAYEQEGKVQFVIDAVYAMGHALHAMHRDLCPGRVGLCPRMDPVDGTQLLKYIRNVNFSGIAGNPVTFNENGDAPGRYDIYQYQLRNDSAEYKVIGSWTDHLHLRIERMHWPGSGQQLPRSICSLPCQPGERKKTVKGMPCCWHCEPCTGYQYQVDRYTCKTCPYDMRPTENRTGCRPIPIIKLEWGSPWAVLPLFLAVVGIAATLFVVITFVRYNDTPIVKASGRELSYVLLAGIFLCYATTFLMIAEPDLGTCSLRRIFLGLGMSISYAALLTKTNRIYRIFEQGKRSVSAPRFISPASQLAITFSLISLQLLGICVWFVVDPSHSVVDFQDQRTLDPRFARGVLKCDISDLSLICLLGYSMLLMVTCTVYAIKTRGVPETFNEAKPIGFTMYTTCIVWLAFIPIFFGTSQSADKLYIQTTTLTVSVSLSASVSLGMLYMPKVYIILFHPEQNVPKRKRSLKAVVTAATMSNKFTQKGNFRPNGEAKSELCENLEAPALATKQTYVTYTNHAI
row,IC50,SMILES
1,28 nM,"Cc1cnc(C(=O)N[C@H](c2nc3cc(F)ccc3n2C)C2CC2)cn1 [Example 51, N-[(S)-cyclopropyl(5-fluoro-1-methyl-1H-1,3-benzodiazol-2-yl)methyl]-5-methylpyrazine-2-carboxamide]"
2,5 nM,"Cc1cnc(C(=O)N[C@H](c2nc3cc(Br)c(F)cc3n2C)C2CC2)cn1 [Example 52, N-[(S)-(5-bromo-6-fluoro-1-methyl-1H-1,3-benzodiazol-2-yl) (cyclopropyl)methyl]-5-methylpyrazine-2-carboxamide]"
3,6 nM,"COCCn1c([C@@H](NC(=O)c2cnc(C(F)F)cn2)[C@H]2CCCO2)nc2cc(OC(F)(F)F)ccc21 [Example 53, 5-(difluoromethyl)-N-[(R)-[1-(2-methoxyethyl)-5-(trifluoromethoxy)-1H-1,3-benzodiazol-2-yl][(2R)-oxolaN-2-yl]methyl]pyrazine-2-carboxamide]"
4,1 nM,"COCCn1c([C@@H](NC(=O)c2cnc(C)cn2)C2CC2)nc2c(C)c(Br)ccc21 [Example 54, N-[(S)-[5-bromo-1-(2-methoxyethyl)-4-methyl-1H-1,3-benzodiazol-2-yl](cyclopropyl)methyl]-5-methylpyrazine-2-carboxamide]"
5,7 nM,"Cn1c([C@@H](NC(=O)c2cnc(C(F)F)cn2)C2CC2)nc2cc(Cl)ccc21 [Example 55, N-[(S)-(5-chloro-1-methyl-1H-1,3-benzodiazol-2-yl)(cyclopropyl)methyl]-5-(difluoromethyl)pyrazine-2-carboxamide]"
6,19 nM,"CCn1c([C@@H](NC(=O)c2cnc(C(F)F)cn2)C(C)(C)O)nc2cc(F)c(F)cc21 [Example 57, 5-(difluoromethyl)-N-[(1R)-1-(1-ethyl-5,6-difluoro-1H-1,3-benzodiazol-2-y1)-2-hydroxy-2-methylpropyl]pyrazine-2-carboxamide]"
7,4 nM,"COCCn1c([C@@H](NC(=O)c2cnc(C)cn2)[C@@H]2CCCO2)nc2cc(OC(F)(F)F)ccc21 [Example 58, N-[(R)-[1-(2-methoxyethyl)-5-(trifluoromethoxy)-1H-1,3-benzodiazol-2-yl][(2S)-oxolan-2-yl]methyl]-5-methylpyrazine-2-carboxamide]"
8,8 nM,"Cc1cnc(C(=O)N[C@H](c2nc3cc(C(F)(F)F)ccc3n2C)[C@@H](C)OC(F)F)cn1 [Example 61, N-[(1R,2R)-2-(difluoromethoxy)-1-[1-methyl-5-(trifluoromethyl)-1H-1,3-benzodiazol-2-yl]propyl]-5-methylpyrazine-2-carboxamide]"
9,9 nM,"COCCn1c([C@@H](NC(=O)c2cnc(C)cn2)[C@H]2CCOC2)nc2cc(OC(F)(F)F)ccc21 [Example 62, N-[(S)-[1-(2-methoxyethyl)-5-(trifluoromethoxy)-1H-1,3-benzodiazol-2-yl][(3R)-oxolan-3-yl]methyl]-5-methylpyrazine-2-carboxamide]"
10,14 nM,"Cc1cnc(C(=O)N[C@H](c2nc3ccc(C(F)(F)F)cc3n2C)C2CC2)cn1 [Example 63, N-[(S)-cyclopropyl[1-methyl-6-(trifluoromethyl)-1H-1,3-benzodiazol-2-yl]methyl]-5-methylpyrazine-2-carboxamide]"
11,19 nM,"Cc1cnc(C(=O)N[C@H](c2nc3cc(F)ccc3n2C)C(C)C)cn1 [Example 64, N-[(1S)-1-(5-fluoro-1-methyl-1H-1,3-benzodiazol-2-yl)-2-methylpropyl]-5-methylpyrazine-2-carboxamide]"
12,16 nM,"CCn1c([C@@H](NC(=O)c2cnc(C(F)F)cn2)C(C)(C)O)nc2cc(F)ccc21 [Example 65, 5-(difluoromethyl)-N-[(1R)-1-(1-ethyl-5-fluoro-1H-1,3-benzodiazol-2-yl)-2-hydroxy-2-methylpropyl]pyrazine-2-carboxamide]"
13,10 nM,"COCCn1c([C@@H](NC(=O)c2cnc(C)cn2)C2CC2)nc2cc(OC(F)F)c(F)cc21 [Example 67, N-[(S)-cyclopropyl[5-(difluoromethoxy)-6-fluoro-1-(2-methoxyethyl)-1H-1,3-benzodiazol-2-yl]methyl]-5-methylpyrazine-2-carboxamide]"
14,19 nM,"Cc1cnc(C(=O)N[C@H](c2nc3cc(Cl)ccc3n2C)[C@@H]2CCCO2)cn1 [Example 68, N-[(R)-(5-chloro-1-methyl-1H-1,3-benzodiazol-2-yl)[(2S)-oxolan-2-yl]methyl]-5-methylpyrazine-2-carboxamide]"
15,18 nM,"Cc1cnc(C(=O)N[C@H](c2nc3cc(F)ccc3n2CC(F)F)[C@@H](C)OC(F)F)cn1 [Example 69, N-[(1R,2R)-1-[1-(2,2-difluoroethyl)-5-fluoro-1H-1,3-benzodiazol-2-y1]-2-(difluoromethoxy)propyl]-5-methylpyrazine-2-carboxamide]"
16,62 nM,"COCCn1c(C(NC(=O)c2cnc(C)cn2)C2CCCO2)nc2cc(C(F)(F)F)ccc21 (centres unmarked) [Example 71-3, N-{[1-(2-methoxyethyl)-5-(trifluoromethyl)-1H-1,3-benzodiazol-2-yl](oxolan-2-yl)methyl}-5-methylpyrazine-2-carboxamide]"

row,IC50,SMILES
1,8 nM,"Cc1cnc(C(=O)N[C@H](c2nc3cc(Cl)ccc3n2C)C(C)C)cn1 [Example 72, N-[(1S)-1-(5-chloro-1-methyl-1H-1,3-benzodiazol-2-yl)-2-methylpropyl]-5-methylpyrazine-2-carboxamide]"
2,18 nM,"Cc1cnc(C(=O)N[C@H](c2nc3cc(F)ccc3n2C2CC2)C2CC2)cn1 [Example 73, N-[(S)-cyclopropyl (1-cyclopropyl-5-fluoro-1H-1,3-benzodiazol-2-yl)methyl]-5-methylpyrazine-2-carboxamide]"
3,6 nM,"Cc1cnc(C(=O)N[C@H](c2nc3cc(OC(F)(F)F)ccc3n2C)C2CC2)cn1 [Example 74, N-[(S)-cyclopropyl[1-methyl-5-(trifluoromethoxy)-1H-1,3-benzodiazol-2-yl]methyl]-5-methylpyrazine-2-carboxamide]"
4,12 nM,"Cc1cnc(C(=O)N[C@H](c2nc3cc(Cl)ccc3n2C)[C@@H]2CC2(F)F)cn1 [Example 76, N-[(S)-(5-chloro-1-methyl-1H-1,3-benzodiazol-2-yl)[(1S)-2,2-difluorocyclopropyl]methyl]-5-methylpyrazine-2-carboxamide]"
5,12 nM,"COCCn1c([C@@H](NC(=O)c2cnc(C(F)F)cn2)[C@H]2CCOC2)nc2cc(OC(F)(F)F)ccc21 [Example 77, 5-(difluoromethyl)-N-[(S)-[1-(2-methoxyethyl)-5-(trifluoromethoxy)-1H-1,3-benzodiazol-2-yl][(3R)-oxolan-3-yl]methyl]pyrazine-2-carboxamide]"
6,13 nM,"Cc1cnc(C(=O)N[C@H](c2nc3cc(OC(F)(F)F)ccc3n2C)[C@@H]2CCCOC2)cn1 [Example 78, 5-methyl-N-[(S)-[1-methyl-5-(trifluoromethoxy)-1H-1,3-benzodiazol-2-yl][(3S)-oxan-3-yl]methyl]pyrazine-2-carboxamide]"
7,19 nM,"COCCn1c([C@@H](NC(=O)c2cnc(C)cn2)[C@@H](C)OC(F)F)nc2cc(OC(F)F)ccc21 [Example 79, N-[(1R,2R)-2-(difluoromethoxy)-1-[5-(difluoromethoxy)-1-(2-methoxyethyl)-1H-1,3-benzodiazol-2-yl]propyl]-5-methylpyrazine-2-carboxamide]"
8,29 nM,"CO[C@H](C)[C@H](NC(=O)c1cnc(C(F)F)cn1)c1nc2cc(OC(F)F)ccc2n1C [Example 80, N-[(1R,2R)-1-[5-(difluoromethoxy)-1-methyl-1H-1,3-benzodiazol-2-yl]-2-methoxypropyl]-5-(difluoromethyl)pyrazine-2-carboxamide]"
9,14 nM,"CCn1c([C@@H](NC(=O)c2cnc(C)cn2)C(C)(C)O)nc2cc(Cl)ccc21 [Example 81, N-[(1R)-1-(5-chloro-1-ethyl-1H-1,3-benzodiazol-2-yl)-2-hydroxy-2-methylpropyl]-5-methylpyrazine-2-carboxamide]"
10,13 nM,"Cc1cnc(C(=O)N[C@H](c2nc3cc(C(F)(F)F)ccc3n2C)[C@H]2CCCOC2)cn1 [Example 82, 5-methyl-N-[(S)-[1-methyl-5-(trifluoromethyl)-1H-1,3-benzodiazol-2-yl][(3R)-oxan-3-yl]methyl]pyrazine-2-carboxamide]"
11,38 nM,"CC(C)(O)[C@H](NC(=O)c1cnc(C(F)F)cn1)c1nc2cc(F)ccc2n1CC(F)F [Example 83, N-[(1R)-1-[1-(2,2-difluoroethyl)-5-fluoro-1H-1,3-benzodiazol-2-yl]-2-hydroxy-2-methylpropyl]-5-(difluoromethyl)pyrazine-2-carboxamide]"
12,26 nM,"Cc1cnc(C(=O)N[C@H](c2nc3cc(F)ccc3n2C(C)C)[C@H]2CCOC2)cn1 [Example 84, N-[(S)-[5-fluoro-1-(propan-2-yl)-1H-1,3-benzodiazol-2-yl][(3R)-oxolan-3-yl]methyl]-5-methylpyrazine-2-carboxamide]"
13,48 nM,"CO[C@H](C)[C@H](NC(=O)c1cnc(C)cn1)c1nc2cc(F)c(F)cc2n1C [Example 85, N-[(1R,2R)-1-(5,6-difluoro-1-methyl-1H-1,3-benzodiazol-2-yl)-2-methoxypropyl]-5-methylpyrazine-2-carboxamide]"
14,10 nM,"Cc1cnc(C(=O)N[C@@H](CC2CC2)c2nc3cc(Cl)ccc3n2C)cn1 [Example 86, N-[(1S)-1-(5-chloro-1-methyl-1H-1,3-benzodiazol-2-yl)-2-cyclopropylethyl]-5-methylpyrazine-2-carboxamide]"
15,12 nM,"COCCn1c([C@@H](NC(=O)c2cnc(C)cn2)[C@H]2CCOC2)nc2cc(C(F)(F)F)ccc21 [Example 87, N-[(S)-[1-(2-methoxyethyl)-5-(trifluoromethyl)-1H-1,3-benzodiazol-2-yl][(3R)-oxolan-3-yl]methyl]-5-methylpyrazine-2-carboxamide]"
16,3 nM,"CO[C@H](C)[C@H](NC(=O)c1cnc(C)cn1)c1nc2c(C)c(Br)ccc2n1C [Example 88, N-[(1R,2R)-1-(5-bromo-1,4-dimethyl-1H-1,3-benzodiazol-2-yl)-2-methoxypropyl]-5-methylpyrazine-2-carboxamide]"
